# Measured values reported in US10246453B2, “Benzenesulfonamide compounds and their use as therapeutic agents” (Xenon Pharmaceuticals Inc., priority 2016, dated 2019).
# pIC50: −log10 of the molar value. Where a name gives a salt, the structure may show the parent alone.
# Assays:
# NaV1.1 = NaV1.1 (Homo sapiens (Human), UniProt P35498); assay: Sodium Influx Assay (Flux), NaV1.1; type: cell-based; conditions: Trex HEK293 cells, ANG2 dye; arithmetic mean
# NaV1.6 = NaV1.6 (Homo sapiens (Human), UniProt Q9UQD0); assay: Sodium Influx Assay (Flux), NaV1.6; conditions: read-out: Flux NaV1.6 IC50; Trex HEK293 cells, ANG2 dye; arithmetic mean
# NaV1.5 = NaV1.5 (Homo sapiens (Human), UniProt Q14524); assay: Sodium Influx Assay (Flux), NaV1.5; conditions: read-out: Flux NaV1.5 IC50; Trex HEK293 cells, ANG2 dye; arithmetic mean
# Chain of NaV1.5 (Q14524 other isoform, or with tags, fused parts or gaps): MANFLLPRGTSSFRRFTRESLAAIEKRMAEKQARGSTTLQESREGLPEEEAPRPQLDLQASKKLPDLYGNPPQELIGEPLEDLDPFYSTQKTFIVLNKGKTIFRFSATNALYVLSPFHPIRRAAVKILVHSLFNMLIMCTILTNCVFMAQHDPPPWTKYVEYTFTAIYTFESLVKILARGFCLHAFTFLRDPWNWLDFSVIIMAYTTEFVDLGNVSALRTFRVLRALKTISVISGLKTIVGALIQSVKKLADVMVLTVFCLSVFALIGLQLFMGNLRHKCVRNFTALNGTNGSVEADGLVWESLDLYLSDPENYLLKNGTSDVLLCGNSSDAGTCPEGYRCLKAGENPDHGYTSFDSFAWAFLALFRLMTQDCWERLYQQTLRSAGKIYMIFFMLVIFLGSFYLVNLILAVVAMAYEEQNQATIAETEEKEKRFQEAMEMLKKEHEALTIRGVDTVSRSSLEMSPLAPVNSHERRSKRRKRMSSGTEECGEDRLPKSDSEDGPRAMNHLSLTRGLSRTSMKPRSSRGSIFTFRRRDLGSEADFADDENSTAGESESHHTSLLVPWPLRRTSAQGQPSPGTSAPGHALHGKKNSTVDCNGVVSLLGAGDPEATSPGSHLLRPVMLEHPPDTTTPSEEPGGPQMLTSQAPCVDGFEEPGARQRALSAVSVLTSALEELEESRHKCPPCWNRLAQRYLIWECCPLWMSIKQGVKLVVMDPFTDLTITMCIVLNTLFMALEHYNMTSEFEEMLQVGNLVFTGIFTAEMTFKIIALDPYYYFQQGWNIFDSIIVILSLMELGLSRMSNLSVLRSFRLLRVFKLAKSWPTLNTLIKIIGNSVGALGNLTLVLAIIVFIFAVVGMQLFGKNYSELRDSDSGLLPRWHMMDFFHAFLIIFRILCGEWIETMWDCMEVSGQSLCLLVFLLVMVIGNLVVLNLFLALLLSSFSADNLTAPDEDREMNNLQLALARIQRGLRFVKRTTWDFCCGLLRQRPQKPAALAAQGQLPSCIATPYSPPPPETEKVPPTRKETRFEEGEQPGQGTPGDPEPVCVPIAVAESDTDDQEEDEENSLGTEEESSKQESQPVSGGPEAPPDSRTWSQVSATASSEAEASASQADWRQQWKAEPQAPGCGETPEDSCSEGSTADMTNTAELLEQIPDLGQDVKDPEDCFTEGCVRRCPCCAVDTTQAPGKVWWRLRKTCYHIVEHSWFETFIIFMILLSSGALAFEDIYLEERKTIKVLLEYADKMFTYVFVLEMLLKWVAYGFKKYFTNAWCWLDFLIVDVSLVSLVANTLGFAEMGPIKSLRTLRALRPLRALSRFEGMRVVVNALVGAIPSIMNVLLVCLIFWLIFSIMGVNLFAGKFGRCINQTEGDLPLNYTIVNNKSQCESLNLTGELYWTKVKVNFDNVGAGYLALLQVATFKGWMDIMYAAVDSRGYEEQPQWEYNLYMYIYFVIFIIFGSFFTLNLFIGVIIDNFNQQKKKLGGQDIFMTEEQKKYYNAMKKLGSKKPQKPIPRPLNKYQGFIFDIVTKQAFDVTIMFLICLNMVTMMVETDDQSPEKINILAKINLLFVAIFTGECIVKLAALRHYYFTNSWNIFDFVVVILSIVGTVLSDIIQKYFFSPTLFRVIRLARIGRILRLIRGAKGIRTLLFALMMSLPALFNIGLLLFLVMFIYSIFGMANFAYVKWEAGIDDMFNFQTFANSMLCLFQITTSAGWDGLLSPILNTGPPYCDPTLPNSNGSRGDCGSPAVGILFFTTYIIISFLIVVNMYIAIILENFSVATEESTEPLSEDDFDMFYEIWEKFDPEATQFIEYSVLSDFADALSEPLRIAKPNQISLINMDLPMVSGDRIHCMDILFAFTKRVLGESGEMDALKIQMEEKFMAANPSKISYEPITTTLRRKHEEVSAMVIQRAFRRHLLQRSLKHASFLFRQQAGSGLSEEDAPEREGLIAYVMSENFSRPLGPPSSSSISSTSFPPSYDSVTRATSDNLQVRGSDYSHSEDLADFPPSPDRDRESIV
pIC50 (NaV1.1),pIC50 (NaV1.6),SMILES,pIC50 (NaV1.5)
5.20,5.87,"O=S(=O)(Nc1nccs1)c1ccc(OC2CCN(Cc3cccc(OC(F)F)c3)CC2)c(Cl)c1 [Example 5, 3-chloro-4-((1-(3-(difluoromethoxy)benzyl)piperidin-4-yl)oxy)-N-(thiazol-2-yl)benzenesulfonamide]",5.36
< 4.52,5.34,"Cc1cc(S(=O)(=O)Nc2cscn2)c(F)cc1N(C)[C@H]1CCN(Cc2ccc(O)cc2)C1 [Example 126, (S)-2-fluoro-4-((1-(4-hydroxybenzyl)-pyrrolidin-3-yl)(methyl)amino)-5-methyl-N-(thiazol-4-yl)benzenesulfonamide]",< 4.52
5.73,5.90,"CN(c1cc(F)c(S(=O)(=O)Nc2cscn2)cc1Cl)[C@H]1CCN(CCCc2ccccc2)C1 [Example 196, (S)-5-chloro-2-fluoro-4-(methyl(1-(3-phenylpropyl)pyrrolidin-3-yl)amino)-N-(thiazol-4-yl)benzenesulfonamide]",5.09
4.68,6.84,"Cc1ccc(CN2CC[C@H](N(C)c3cc(F)c(S(=O)(=O)Nc4cscn4)cc3C)C2)o1 [Example 132, (S)-2-fluoro-5-methyl-4-(methyl(1-((5-methylfuran-2-yl)methyl)pyrrolidin-3-yl)amino)-N-(thiazol-4-yl)benzenesulfonamide]",< 4.52
5.20,5.75,"CCc1cc(S(=O)(=O)Nc2cscn2)c(F)cc1N(C)[C@H]1CCN(Cc2ccccc2)C1 [Example 290, (S)-4-((1-benzylpyrrolidin-3-yl)(methyl)amino)-5-ethyl-2-fluoro-N-(thiazol-4-yl)benzenesulfonamide 2,2,2-trifluoroacetate]",5.28
5.26,6.36,"Cc1ccc(F)c(CN2CC[C@H](N(C)c3cc(F)c(S(=O)(=O)Nc4cscn4)cc3Cl)C2)c1 [Example 172, (S)-5-chloro-2-fluoro-4-((1-(2-fluoro-5-methylbenzyl)-pyrrolidin-3-yl)(methyl)amino)-N-(thiazol-4-yl)benzene-sulfonamide 2,2,2-trifluoroacetate]",5.30
5.27,6.23,"Cc1cccc(CN2CC[C@H](Nc3cc(F)c(S(=O)(=O)Nc4nccs4)cc3Cl)C2)c1 [Example 86, (S)-5-chloro-2-fluoro-4-(1-(3-methylbenzyl)pyrrolidin-3-ylamino)-N-(thiazol-2-yl)benzenesulfonamide]",4.90
4.90,5.26,"Cc1cc(S(=O)(=O)Nc2cscn2)c(F)cc1N(C)[C@H]1CCN(Cc2ccnn2CC(F)(F)F)C1 [Example 108, (S)-2-fluoro-5-methyl-4-(methyl(1-((1-(2,2,2-trifluoroethyl)-1H-pyrazol-5-yl)methyl)pyrrolidin-3-yl)amino)-N-(thiazol-4-yl)benzenesulfonamide]",< 4.52
5.22,6.21,"Cc1cc(S(=O)(=O)Nc2cscn2)c(F)cc1N(C)[C@H]1CCN(C2Cc3ccccc3C2)C1 [Example 149, (S)-4-((1-(2,3-dihydro-1H-inden-2-yl)pyrrolidin-3-yl)(methyl)amino)-2-fluoro-5-methyl-N-(thiazol-4-yl)benzenesulfonamide]",5.04
5.36,6.81,"C[C@@H](c1ccccc1)N1CC[C@H](N(C)c2ccc(S(=O)(=O)Nc3nccs3)cc2Cl)C1 [Example 42, 3-chloro-4-(methyl((S)-1-((S)-1-phenylethyl)pyrrolidin-3-yl)amino)-N-(thiazol-2-yl)benzenesulfonamide]",5.04
5.12,6.89,"Cc1ccccc1CN1CC[C@H](N(C)c2cc(F)c(S(=O)(=O)Nc3cscn3)cc2C)C1 [Example 148, (S)-2-fluoro-5-methyl-4-(methyl(1-(2-methylbenzyl)pyrrolidin-3-yl)amino)-N-(thiazol-4-yl)benzenesulfonamide]",4.91
4.60,5.36,"CN(c1cc(F)c(S(=O)(=O)Nc2cscn2)cc1Cl)[C@H]1CCN(Cc2ccc[nH]2)C1 [Example 202, (S)-4-((1-((1H-pyrrol-2-yl)methyl)pyrrolidin-3-yl)(methyl)amino)-5-chloro-2-fluoro-N-(thiazol-4-yl)benzenesulfonamide]",< 4.52
5.15,5.89,"CN(c1cc(F)c(S(=O)(=O)Nc2cscn2)cc1C1CC1)[C@H]1CCN(Cc2ccccc2)C1 [Example 289, (S)-4-((1-benzylpyrrolidin-3-yl)(methyl)amino)-5-cyclopropyl-2-fluoro-N-(thiazol-4-yl)benzenesulfonamide 2,2,2-trifluoroacetate]",4.71
4.53,5.50,"COc1cccc(CN2CC[C@H](N(C)c3cc(F)c(S(=O)(=O)Nc4cscn4)cc3Cl)C2)n1 [Example 194, (S)-5-chloro-2-fluoro-4-((1-((6-methoxypyridin-2-yl)methyl)pyrrolidin-3-yl)(methyl)amino)-N-(thiazol-4-yl)benzene-sulfonamide]",4.63
5.06,5.15,"CN(c1cc(F)c(S(=O)(=O)Nc2cscn2)cc1Cl)[C@H]1CCN(Cc2ccnc(C(F)(F)F)c2)C1 [Example 185, (S)-5-chloro-2-fluoro-4-(methyl(1-((2-(trifluoromethyl)-pyridin-4-yl)methyl)pyrrolidin-3-yl)amino)-N-(thiazol-4-yl)benzene-sulfonamide]",4.65
4.78,5.25,"Cc1nc(CN2CC[C@H](N(C)c3cc(F)c(S(=O)(=O)Nc4cscn4)cc3C)C2)c(C(F)(F)F)o1 [Example 154, (S)-2-fluoro-5-methyl-4-(methyl(1-((2-methyl-5-(trifluoromethyl)oxazol-4-yl)methyl)pyrrolidin-3-yl)amino)-N-(thiazol-4-yl)benzenesulfonamide 2,2,2-trifluoroacetate]",4.66
5.14,5.77,"Cc1cc(S(=O)(=O)Nc2cscn2)c(F)cc1N(C)[C@H]1CCN(Cc2nc(C(F)(F)F)cs2)C1 [Example 152, (S)-2-fluoro-5-methyl-4-(methyl(1-((4-(trifluoromethyl)thiazol-2-yl)methyl)pyrrolidin-3-yl)amino)-N-(thiazol-4-yl)benzenesulfonamide]",5.05
5.29,5.83,"CN(c1cc(F)c(S(=O)(=O)Nc2cscn2)cc1Cl)[C@H]1CCN(Cc2cc(Cl)ccc2F)C1 [Example 195, (S)-5-chloro-4-((1-(5-chloro-2-fluorobenzyl)pyrrolidin-3-yl)(methyl)amino)-2-fluoro-N-(thiazol-4-yl)benzenesulfonamide]",5.42
< 4.52,5.61,"C[C@H](c1ccccc1)N1CCC(Oc2ccc(S(=O)(=O)Nc3ncc(F)cn3)cc2Cl)CC1 [Example 304, (R)-3-chloro-N-(5-fluoropyrimidin-2-yl)-4-((1-(1-phenylethyl)piperidin-4-yl)oxy)benzenesulfonamide]",< 4.52
5.03,5.36,"Cc1cc(S(=O)(=O)Nc2cscn2)c(F)cc1N(C)[C@H]1CCN(Cc2ncc(Cl)s2)C1 [Example 146, (S)-4-((1-((5-chlorothiazol-2-yl)methyl)pyrrolidin-3-yl)(methyl)amino)-2-fluoro-5-methyl-N-(thiazol-4-yl)benzenesulfonamide]",4.92

SMILES,pIC50 (NaV1.1),pIC50 (NaV1.6),pIC50 (NaV1.5)
"C[C@H]1C[C@H](N(C)c2cc(F)c(S(=O)(=O)Nc3cscn3)cc2Cl)CN1Cc1ccccc1 [Example 231, 4-(((3S,5S)-1-benzyl-5-methylpyrrolidin-3-yl)(methyl)amino)-5-chloro-2-fluoro-N-(thiazol-4-yl)benzenesulfonamide formate]",4.59,5.26,4.82
"O=S(=O)(Nc1nccs1)c1ccc(NC2CN(Cc3ccccc3)C2)c(Cl)c1 [Example 50, 4-((1-benzylazetidin-3-yl)amino)-3-chloro-N-(thiazol-2-yl)benzenesulfonamide 2,2,2-trifluoroacetate]",5.38,5.97,5.24
"CN(c1ccc(S(=O)(=O)Nc2cscn2)c(F)c1Cl)[C@H]1CCN([C@H]2CCc3ccccc32)C1 [Example 247, 3-chloro-4-(((S)-1-((S)-2,3-dihydro-1H-inden-1-yl)pyrrolidin-3-yl)(methyl)amino)-2-fluoro-N-(thiazol-4-yl)benzenesulfonamide 2,2,2-trifluoroacetate]",5.16,6.33,4.86
"O=S(=O)(Nc1nccs1)c1cc(Cl)c(O[C@@H]2C[C@H]3CC[C@@H](C2)N3Cc2cccc(Cl)c2)cc1F [Example 18, 5-chloro-4-(((1R,3s,5S)-8-(3-chlorobenzyl)-8-azabicyclo[3.2.1]octan-3-yl)oxy)-2-fluoro-N-(thiazol-2-yl)benzenesulfonamide 2,2,2-trifluoroacetate]",< 4.52,5.98,< 4.52
"CCc1c(O[C@H]2CCN(Cc3ccccc3)C2)cc(F)c(S(=O)(=O)Nc2cscn2)c1F [Example 276, (S)-4-((1-benzylpyrrolidin-3-yl)oxy)-3-ethyl-2,6-difluoro-N-(thiazol-4-yl)benzenesulfonamide 2,2,2-trifluoroacetate]",4.73,6.25,4.75
"O=S(=O)(Nc1cscn1)c1cc(Cl)c(N[C@H]2CCN(Cc3ccccc3)C2)cc1F [Example 258, (S)-4-((1-benzylpyrrolidin-3-yl)amino)-5-chloro-2-fluoro-N-(thiazol-4-yl)benzenesulfonamide formate]",4.89,5.10,4.81
